Tested on: U373 MG
Experiment: Antimitotic activity against human glioma line U-373 cell by measuring the incorporation of [3H]thymidine in cultures of the cells
Assay type: functional, cell-based, U-373MG ATCC

- IC50: 43 µM
Compound: CCCCCCCCO[C@H]1O[C@@H](COCC(CO)(CO)CO)[C@@H](O)[C@H](O)[C@@H]1NC(C)=O
